Test results from patent US20250127913A1, “BIFUNCTIONAL FOLATE RECEPTOR BINDING COMPOUNDS” (LYCIA THERAPEUTICS, INC., priority 2021, published 2025).

Experiments:
TNFα = TNFα (Homo sapiens (Human), UniProt P01375); experiment: TNFα binding assay (time-resolved FRET, biotinylated TNFα); conditions: 1 nM biotinylated TNFα, 80 nM probe, 16 hr incubation; read-out: TNF-HTRF-biotin
Protocol: TNFα binding was measured in black 96-well plates using a time-resolved FRET assay using a previously described fluorescence acceptor TNFα probe (Xiao et al J. Med. Chem. 2020). Biotinylated TNFα was purchased from Acro Biosystems. Binding reactions were conducted in 20 mM Hepes (pH 7.5) 10 mM MgCl2 0.015% Tween-20 0.05 mg/ml BSA 2% DMSO with 1 nM TNFα 0.5 nM Streptavidin-Tb and 80 nM probe. Test compounds were resuspended in DMSO and 3-fold serial dilutions were made at 100× final concentrations. Fluorescence was measured using λex=340 nm, λem=490, 520 nm on an SpectraMax M5e plate reader (Molecular Devices) after 16 hr incubation time. Dose responses were conducted in duplicate and normalized to the response with DMSO (high) and 100 nM (R)-3-(1-((3-chloro-7-fluoro-6-(2-(2-hydroxypropan-2-yl)pyrimidin-5-yl)-2-methyl-1,5-naphthyridin-4-yl)amino)ethyl)-4-fluorobenzonitrile (low) on each plate. IC50 values were determined by fitting to 4-parameter curves in GraphPad Prism.

folate receptor beta [1] = biological target: T1, folate receptor beta (Homo sapiens (Human), UniProt P14207); experiment: Folate receptor binding assay (fluorescence polarization); conditions: 2.5 nM folate receptor beta, 2 nM FR-Cy probe, 2 hr incubation; read-out: FOLR2-FP
Protocol: Folate receptor binding was measured in black 96-well plates using a fluorescence polarization assay. A fluorescent probe consisting of a folate analog linked to Cy5 (FR-Cy) was custom synthesized.
Test compounds were resuspended in DMSO and 3-fold serial dilutions were made from 300-0.015 μM (100× final concentrations). Binding reactions were conducted in 200 μl final volume in 20 mM Hepes (pH 7.5) 250 mM NaCl 0.0150 Tween-20 1% DMSO with 2.5 nM folate receptor beta (Acro Biosystems) and 2 nM probe. Fluorescence polarization was measured using λex=620 nm, λem=688 nm on an Envision plate reader (Perkin Elmer) after 2 hr incubation time. Dose responses were conducted in duplicate and normalized to the response with DMSO (high) and 1 μM folic acid (low) on each plate. IC50 values were determined by fitting to 4-parameter curves in GraphPad Prism.

[2] = biological target: TNFα and streptavidin immobilized FOL2R (Homo sapiens (Human), UniProt P01375+P14207); experiment: Ternary complex SPR assay; type: binding; conditions: 10 nM compound, max response normalized to expected response; for TC 60 nM taggless TNF normalized: 60 nM untagged TNF; for TC 300 nM- tagless TNF Normalized: 300 nM untagged TNF; for TC 150 nM- tagless TNF Normalized: 150 nM untagged TNF
Protocol: Folate receptor-TNFα ternary complex SPR assays were conducted on a Biacore 8K instrument (Cytiva) using biotinylated folate receptor beta (Acro Biosystems). Folate receptor was immobilized at -1800 RU on a streptavidin chip (Cytiva) in 10 mM HEPES pH 7.5, 150 mM NaCl, 0.05% Tween 20. Untagged TNF was preincubated with 10 nM compound for 6 hr in 10 mM HEPES pH 7.5, 150 mM NaCl, 0.05 Tween 20, 2% DMSO at 25° C. Samples were then injected over the folate receptor surface at 30 μl/min with an association time of 110 s and a dissociation time of 600 s. Surfaces were regenerated with 4 M MgCl2 at 30 μl/mm for 30 s. The maximum measured response was normalized by comparison to the maximum expected response for each compound.

folate receptor beta [3] = biological target: T1, folate receptor beta; experiment: Folate receptor SPR assay (biotinylated folate receptor beta on streptavidin chip); type: binding; conditions: for Rmax: biotinylated folate receptor beta on streptavidin chip; for kd / Kd / kon: multi-cycle kinetics, 25° C., 1:1 model; for Kd: read-out: FOLR2Biotin - SPR Kd; for kon: pH 7.5, read-out: ka
Protocol: Folate receptor SPR binding assays were conducted on a Biacore 8K instrument (Cytiva) using biotinylated folate receptor beta (Acro Biosystems). Briefly, folate receptor was immobilized at -550 RU on a streptavidin chip (Cytiva) in 10 mM HEPES pH 7.5, 150 mM NaCl, 0.05% Tween 20. Multi-cycle kinetic studies were conducted with 8 compound concentrations using 2-fold dilutions in 10 mM HEPES pH 7.5, 150 mM NaCl, 0.05% Tween 20, 2% DMSO at 25° C. A flow rate or 75 μl/mmn with an association time of 120 s and a dissociation time of 600 s were used. Surfaces were regenerated with 4 M MgCl2 at 30 μl/min for 30 s. Data were fit to a 1:1 model to determine the reported binding parameters.

Sequence of TNFα and streptavidin immobilized FOL2R (P14207 17-230): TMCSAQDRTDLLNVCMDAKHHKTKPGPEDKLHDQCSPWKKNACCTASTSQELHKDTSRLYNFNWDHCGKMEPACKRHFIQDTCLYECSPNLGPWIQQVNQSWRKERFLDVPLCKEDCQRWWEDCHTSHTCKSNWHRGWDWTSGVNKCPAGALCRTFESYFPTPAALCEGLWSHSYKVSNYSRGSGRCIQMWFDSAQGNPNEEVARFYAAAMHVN
Sequence of TNFα and streptavidin immobilized FOL2R (P01375 77-233): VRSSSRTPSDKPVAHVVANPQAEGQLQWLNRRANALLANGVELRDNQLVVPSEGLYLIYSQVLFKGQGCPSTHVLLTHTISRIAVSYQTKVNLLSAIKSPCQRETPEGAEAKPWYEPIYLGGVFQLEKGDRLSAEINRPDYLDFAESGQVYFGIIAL
T1 sequence (P14207 17-255): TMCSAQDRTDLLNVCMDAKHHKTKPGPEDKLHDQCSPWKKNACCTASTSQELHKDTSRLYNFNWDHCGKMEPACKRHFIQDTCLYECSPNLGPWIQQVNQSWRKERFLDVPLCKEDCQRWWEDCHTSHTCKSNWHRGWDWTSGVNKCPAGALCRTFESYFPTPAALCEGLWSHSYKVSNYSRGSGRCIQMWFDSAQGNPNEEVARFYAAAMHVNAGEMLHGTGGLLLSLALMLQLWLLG
Sequence of TNFα (P01375 77-233): as the sequence (P01375 77-233) above

Compound | IC50 (TNFα) | IC50 (folate receptor beta [1]) | TC 60 nM taggless TNF normalized [2] | TC 300 nM- tagless TNF Normalized [2] | Rmax (folate receptor beta [3]) | kd (folate receptor beta [3]) | Kd (folate receptor beta [3]) | kon (folate receptor beta [3]) | TC 150 nM- tagless TNF Normalized [2]
Cc1nc2cc(F)c(-c3cnc(N4CC5(CN(C(=O)COCCOCCOCCOCCOCCOCCn6cc(CC[C@H](NC(=O)c7ccc(NCc8cnc9nc(N)nc(O)c9n8)cc7)C(=O)O)nn6)C5)C4)nc3)nc2c(N[C@H](C)c2cc(C#N)ccc2F)c1Cl [Compound I-81, (S)-2-(4-(((2-amino-4-hydroxypteridin-6-yl)methyl)amino)benzamido)-4-(1-(20-(6-(5-(7-chloro-8-(((R)-1-(5-cyano-2-fluorophenyl)ethyl)amino)-3-fluoro-6-methyl-1,5-naphthyridin-2-yl)pyrimidin-2-yl)-2,6-diazaspiro[3.3]heptan-2-yl)-20-oxo-3,6,9,12,15,18-hexaoxaicosyl)-1H-1,2,3-triazol-4-yl)butanoic acid] | 39 nM | 7.1 nM | 4% | 12.1% |  |  |  |  | 
Cc1nc2cc(F)c(-c3cnc(N4CCN(C(=O)COCCOCCOCCOCCOCCOCCn5cc(CC[C@H](NC(=O)c6ccc(CCc7ccc8nc(N)nc(O)c8c7)cc6)C(=O)O)nn5)CC4)nc3)nc2c(N[C@H](C)c2cc(C#N)ccc2F)c1Cl [Compound I-82, (S)-2-(4-(2-(2-amino-4-hydroxyquinazolin-6-yl)ethyl)benzamido)-4-(1-(20-(4-(5-(7-chloro-8-(((R)-1-(5-cyano-2-fluorophenyl)ethyl)amino)-3-fluoro-6-methyl-1,5-naphthyridin-2-yl)pyrimidin-2-yl)piperazin-1-yl)-20-oxo-3,6,9,12,15,18-hexaoxaicosyl)-1H-1,2,3-triazol-4-yl)butanoic acid] | 19 nM | 4.9 nM | 15.7% | 24.9% | 14.5 RU | 0.000591 s⁻¹ | 0.031 nM | 1.91e+07 M⁻¹ s⁻¹ | 
CN(Cc1cnc2nc(N)[nH]c(=O)c2n1)c1ccc(C(=O)N[C@@H](CCc2cn(CCOCCOCCOCCOCCOCCOCC(=O)N3CCN(c4ncc(-c5ccc6nc(COc7cccc(N8CCCC8=O)c7)n(Cc7ccccc7OC(F)F)c6c5)cn4)CC3)nn2)C(=O)O)cc1 [Compound I-83, (S)-2-(4-(((2-amino-4-oxo-3,4-dihydropteridin-6-yl)methyl)(methyl)amino)benzamido)-4-(1-(20-(4-(5-(1-(2-(difluoromethoxy)benzyl)-2-((3-(2-oxopyrrolidin-1-yl)phenoxy)methyl)-1H-benzo[d]imidazol-6-yl)pyrimidin-2-yl)piperazin-1-yl)-20-oxo-3,6,9,12,15,18-hexaoxaicosyl)-1H-1,2,3-triazol-4-yl)butanoic acid] | 28 nM | 5.3 nM | 14.3% | 17.5% |  |  |  |  | 
Cc1nc2cc(F)c(-c3cnc(N4CCN(C(=O)COCCOCCN5CCC6(CC5)CCN(C(=O)CC[C@H](NC(=O)c5ccc(NCc7cnc8nc(N)nc(O)c8n7)cc5)C(=O)O)CC6)CC4)nc3)nc2c(N[C@H](C)c2cc(C#N)ccc2F)c1Cl [Compound I-84, (S)-2-(4-(((2-amino-4-hydroxypteridin-6-yl)methyl)amino)benzamido)-5-(9-(2-(2-(2-(4-(5-(7-chloro-8-(((R)-1-(5-cyano-2-fluorophenyl)ethyl)amino)-3-fluoro-6-methyl-1,5-naphthyridin-2-yl)pyrimidin-2-yl)piperazin-1-yl)-2-oxoethoxy)ethoxy)ethyl)-3,9-diazaspiro[5.5]undecan-3-yl)-5-oxopentanoic acid] | 9 nM | 6.9 nM | 10.8% | 17.3% | 19.7 RU | 0.000153 s⁻¹ | 0.0059 nM | 2.59e+07 M⁻¹ s⁻¹ | 17.4%
Cc1nc2cc(F)c(-c3cnc(N4CCN(C(=O)COCCOCCOCCOCCOCCOCCn5cc(CC[C@H](NC(=O)c6ccc(N(C)Cc7ccc8nc(N)[nH]c(=O)c8c7)cc6)C(=O)O)nn5)CC4)nc3)nc2c(N[C@H](C)c2cc(C#N)ccc2F)c1Cl [Compound I-85, (S)-2-(4-(((2-amino-4-oxo-3,4-dihydroquinazolin-6-yl)methyl)(methyl)amino)benzamido)-4-(1-(20-(4-(5-(7-chloro-8-(((R)-1-(5-cyano-2-fluorophenyl)ethyl)amino)-3-fluoro-6-methyl-1,5-naphthyridin-2-yl)pyrimidin-2-yl)piperazin-1-yl)-20-oxo-3,6,9,12,15,18-hexaoxaicosyl)-1H-1,2,3-triazol-4-yl)butanoic acid] | 13 nM | 12 nM | 9.7% | 15.1% | 11.9 RU | 0.00112 s⁻¹ | 0.088 nM | 1.27e+07 M⁻¹ s⁻¹ | 
Cc1nc2cc(F)c(-c3cnc(N4CCN(C(=O)COCCOCCOCCOCCOCCOCCn5cc(CC[C@H](NC(=O)c6ccc(N(C)Cc7cnc8nc(N)[nH]c(=O)c8n7)cc6)C(=O)O)nn5)CC4)nc3)nc2c(N[C@H](C)c2cc(C#N)ccc2F)c1Cl [Compound I-86, (S)-2-(4-(((2-amino-4-oxo-3,4-dihydropteridin-6-yl)methyl)(methyl)amino)benzamido)-4-(1-(20-(4-(5-(7-chloro-8-(((R)-1-(5-cyano-2-fluorophenyl)ethyl)amino)-3-fluoro-6-methyl-1,5-naphthyridin-2-yl)pyrimidin-2-yl)piperazin-1-yl)-20-oxo-3,6,9,12,15,18-hexaoxaicosyl)-1H-1,2,3-triazol-4-yl)butanoic acid] | 17 nM | 7.7 nM |  | 22.8% | 18.1 RU | 0.000344 s⁻¹ | 0.023 nM | 1.53e+07 M⁻¹ s⁻¹ | 20.1%
Cc1nc2cc(F)c(-c3cnc(N4CCN(C(=O)COCCOCCOCCOCCOCCn5cc(CC[C@H](NC(=O)c6ccc(NCc7cnc8nc(N)nc(O)c8n7)cc6)C(=O)O)nn5)CC4)nc3)nc2c(N[C@H](C)c2cc(C#N)ccc2F)c1Cl [Compound I-89, (S)-2-(4-(((2-amino-4-hydroxypteridin-6-yl)methyl)amino)benzamido)-4-(1-(17-(4-(5-(7-chloro-8-(((R)-1-(5-cyano-2-fluorophenyl)ethyl)amino)-3-fluoro-6-methyl-1,5-naphthyridin-2-yl)pyrimidin-2-yl)piperazin-1-yl)-17-oxo-3,6,9,12,15-pentaoxaheptadecyl)-1H-1,2,3-triazol-4-yl)butanoic acid] | 42 nM | 8.4 nM | 11.6% | 15% | 31.1 RU | 0.000337 s⁻¹ | 0.223 nM | 1.51e+06 M⁻¹ s⁻¹ | 
